This note sets out measurements from US20180264134A1, “A COMPOSITION OF GOLD NANOPARTICLES HAVING ANTIMICROBIAL PEPTIDES BOUND ON THEIR SURFACE FOR USE THE TREATMENT OF WOUND HEALING OR IN THE TREATMENT OF ISCHEMIC OR VASCULAR DISEASES OR IN THE TREATMENT OF SKIN DISORDERS” (priority 2015, published 2018).

Values joined by “and” are separate entries in the source; they are usually repeats but may differ in a detail not shown here. Equal values may be shown once.

The test system of data set [1] is full-thickness excisional wounds. The experiment in a line: In vivo wound healing, splinted mouse full thickness excisional model. Set-up: species or system RjHan:NMRI female mice. An excerpt:
For measure some parameters In vivo wound healing and tissue collection can be use. 6-7 week old RjHan:NMRI female mice (Janvier, BE) were anesthesized with isoflurane and the dorsal area was shaved using a depilatory cream a day before the surgery. Two 0.5-mm-thick silicone (Grace biolabs, UK) donut-shaped splints (OD=20 mm, ID=10 mm) were fixed on either side of the dorsal midline, approximately 3.5 cm from the ears and positioned with 6-0 nylon sutures (Monosof, USA). Full-thickness excisional wounds were made using an 8 mm round skin biopsy punch (Kai Europe GMBH, DE), centered within each splint. […] Wound areas were quantified using the Jmicro Vision software developed by N. Roduit at University of Geneva, Switzerland. Wound sizes are expressed as percentage of the initial respective wound. […]
In an embodiment, histology and immunohistochemistry assay were conducted: the wound halves were immediately fixed with paraformaldehyde (4% in PBS, 0.01 M, pH 7.4) and after 24 h, the samples were transferred to PBS buffer at 4° C. […] A semi-quantitative estimation of MT green staining was performed using FRIDA software (developed by Johns Hopkins University, USA) and the staining values were expressed as staining per unit area. […]

For another data set, the system named is HUVECs. The experiment in a line: Cytotoxicity in HUVECs (PI viability, ATP, ROS). The format is cell-based. The procedure: In an embodiment of the cytotoxicity studies in HUVECs and HaCaT may be seeded at a density of 1×10^4 and 2×10^4 cells per well respectively and cultured in a 96-well plate for 24 and then incubated with soluble LL37 (0.5, 1, 10, 30, 60 μg/mL), LL37 Au-NPs and AuNPs suspended in culture medium at different concentrations (25, 50, 100 and 200 μg/mL). After 5 and 24 h, CellTiter-Glo® Luminescent Cell Viability Assay (Promega) was used to assess the ATP production of the cells according to the supplier's instructions. For ROS quantification, cells were seeded at a density of 4×10^4 cells/cm^2 in 24-well plates and cultured for 24 h. Either LL37-Au NPs or Au NPs suspended in culture medium at different concentrations (25, 50, 100 and 200 μg/mL) were added to cells and left for 5 h and 48 h. Before the treatment ended, cells were dosed with 100 μM of 6-carboxy-2′,7′-dichlorodihydrofluorescein diacetate (DCFH-DA), a dye commonly used to measure intracellular changes in ROS, for 1 hour. After washing the cells twice, they were trypsinized, centrifuged and resuspended in PBS to proceed with flow cytometry analysis (FACS Canto II, BD Biosciences). 1 mM H2O2 was used as a positive control for ROS production. In addition, propidium iodide (PI) (1 μg/mL final concentration) was used to quantify cell viability and to exclude the dead cells (i.e. PI positive cells) from the DCFH analysis.

For another data set, the system named is ERK1/2. Put plainly: ERK1/2 phosphorylation in HaCaT (ELISA). The note with it: LL37 5 μg/mL; LL37-Au NPs 200 μg/mL. It counts as cell-based, human. The procedure:
In an embodiment the detection of EGFR and ERK1/2 phosphorylation, can be perform by: the activation of EGFR receptor in HaCaT (80% confluency, in 6-well plates) was induced by starving the cells for 24 h in DMEM supplemented with 1% (v/v) penicillin and adding soluble LL37, LL37-Au NPs and Au NPs for a given period of time. Following treatment, the plates were immersed in ice and the medium was discarded. Then the proteins were isolated from the cells . . . . The levels of EGFR (phosphorylated EGFR and total EGFR) were determined by ELISA kit (R&D Systems). The activation of ERK signaling pathways in HaCaT (80% confluency, in one 96-well cell culture clear-bottom black microplate) were obtained starving the cells for 24 h in DMEM supplemented with 1% (v/v) penicillin and then stimulating them with soluble LL37 (5 μg/mL), LL37-Au NPs and Au NPs (200 μg/mL). After treatments the level of ERK were determined using a phosphoprotein and total protein ELISA kit (R&D Systems ref. KCB1018) according to the manufacture's instructions. Data were acquired with a BioTek synergy MX microplate reader.

On to `CC[C@H](C)[C@H](NC(=O)[C@H](CCCCN)NC(=O)[C@H](CCC(=O)O)NC(=O)[C@H](CCCCN)NC(=O)[C@H](CO)NC(=O)[C@H](CCCCN)NC(=O)[C@H](CCCNC(=N)N)NC(=O)[C@H](Cc1ccccc1)NC(=O)[C@H](Cc1ccccc1)NC(=O)[C@H](CC(=O)O)NC(=O)CNC(=O)[C@H](CC(C)C)NC(=O)[C@@H](N)CC(C)C)C(=O)NCC(=O)N[C@@H](CCCCN)C(=O)N[C@@H](CCC(=O)O)C(=O)N[C@@H](Cc1ccccc1)C(=O)N[C@@H](CCCCN)C(=O)N[C@@H](CCCNC(=N)N)C(=O)N[C@H](C(=O)N[C@H](C(=O)N[C@@H](CCC(N)=O)C(=O)N[C@@H](CCCNC(=N)N)C(=O)N[C@H](C(=O)N[C@@H](CCCCN)C(=O)N[C@@H](CC(=O)O)C(=O)N[C@@H](Cc1ccccc1)C(=O)N[C@@H](CC(C)C)C(=O)N[C@@H](CCCNC(=N)N)C(=O)N[C@@H](CC(N)=O)C(=O)N[C@@H](CC(C)C)C(=O)N[C@H](C(=O)N1CCC[C@H]1C(=O)N[C@@H](CCCNC(=N)N)C(=O)N[C@H](C(=O)N[C@@H](CCC(=O)O)C(=O)N[C@@H](CO)C(=O)N[C@@H](CS)C(N)=O)[C@@H](C)O)C(C)C)[C@@H](C)CC)C(C)C)[C@@H](C)CC` [LL37], for which the wound healing in data set [1] (after 10 days, LL37 70 μg per wound, listed as LL37 peptide) is 50% and 70%. In data set [1] (day 10), the “MPO activity in wound tissue” value was “significantly decreased”. In addition, in the data set with HUVECs, the “concentration showing cytotoxic effect” value turned out to be 10000 ng/mL. In addition, the “concentration up to which no significant change in cell viability, ATP production, ROS” value in the data set with HUVECs (5 and 48 h) was ≤ 30000 ng/mL. Further, the “concentration at which significant cell death and ROS production were observed” value with HUVECs (48 h) stood at 30000 ng/mL. Further, the “time of peak ERK1/2 phosphorylation” value with ERK1/2 stood at 4 min.
